31 compounds from patent publication US7674795B2, “Fluorene derivatives, composition containing said derivatives and the use thereof” (Aventis Pharma SA, priority 2005, dated 2010) can be followed below.

The structures appear in SMILES notation. pIC50: −log10 of the molar value. Counter-ions that a name gives are not always drawn. Where only a bound is given, the exact number is not on record here.

Chain of Hsp82 (P02829 whole entry): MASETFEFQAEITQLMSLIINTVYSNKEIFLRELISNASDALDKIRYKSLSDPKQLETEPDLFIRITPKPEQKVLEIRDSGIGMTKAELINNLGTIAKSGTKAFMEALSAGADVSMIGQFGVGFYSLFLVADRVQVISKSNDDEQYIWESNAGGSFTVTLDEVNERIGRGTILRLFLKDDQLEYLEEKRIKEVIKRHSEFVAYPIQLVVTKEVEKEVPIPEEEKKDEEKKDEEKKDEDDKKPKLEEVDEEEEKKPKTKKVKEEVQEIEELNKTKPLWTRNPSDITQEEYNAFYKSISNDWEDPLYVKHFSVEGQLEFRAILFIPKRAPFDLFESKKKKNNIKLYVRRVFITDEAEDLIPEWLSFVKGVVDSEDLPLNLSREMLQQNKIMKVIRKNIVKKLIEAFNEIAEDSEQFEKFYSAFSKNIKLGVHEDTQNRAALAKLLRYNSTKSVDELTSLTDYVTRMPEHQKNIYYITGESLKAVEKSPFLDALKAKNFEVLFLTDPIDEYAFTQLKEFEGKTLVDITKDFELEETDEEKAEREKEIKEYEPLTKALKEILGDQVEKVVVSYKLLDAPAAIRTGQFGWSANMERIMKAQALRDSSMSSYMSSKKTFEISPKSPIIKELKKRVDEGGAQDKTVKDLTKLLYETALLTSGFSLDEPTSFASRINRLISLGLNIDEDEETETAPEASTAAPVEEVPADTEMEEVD

The assay concerns the target Hsp82 (Saccharomyces cerevisiae, UniProt P02829). The experiment in a line: PK/LDH enzyme coupling test of the ATPase activity of Hsp82 (NADH decrease at 340 nm). The assay is classed as biochemical. The following applies: 1 μM Hsp82, 250 μM ATP, 37° C., pyruvate kinase/lactate dehydrogenase coupling, read-out: Hsp82 ATPase IC50. The text has this: The formation of ADP due to the ATPase activity of Hsp82 was utilized for developing another method of evaluating the enzymatic activity of this enzyme by application of an enzyme coupling system employing pyruvate kinase (PK) and lactate dehydrogenase (LDH). In this spectrophotometric method of the kinetic type, the PK catalyses the formation of ATP and of pyruvate starting from phosphoenol-pyruvate (PEP) and the ADP produced by HSP82. The pyruvate that formed, an LDH substrate, is then converted to lactate in the presence of NADH. In this case, the decrease in the concentration of NADH, measured by the decrease in absorbance at wavelength of 340 nm, is proportional to the concentration of ADP produced by HSP82. […] This mixture is preincubated at 37° C. for 30 min before adding 3.77 units of LDH and 3.77 units of PK. The reaction is started by adding the product to be evaluated, in variable concentrations, and of Hsp82, at a concentration of 1 μM. The enzymatic activity of Hsp82 is then measured continuously in a microplate reader at 37° C., at wavelength of 340 nm. The initial reaction rate is found by measuring the slope of the tangent at the origin of the recorded curve. The enzymatic activity is expressed as μM of ADP formed per minute. The effect of the various products tested is expressed as percentage of inhibition of ATPase activity, using the following codes: • A: […]
Consider `O=C(NC1c2ccccc2-c2c(-c3nc4ccncc4[nH]3)cccc21)c1ccc2cc[nH]c2c1` (racemic) [Example 46, [4-(3H-imidazo[4,5-c]pyridin-2-yl)-9H-fluoren-9(R,S)-yl]amide of 1H-indole-6-carboxylic acid], for which the pIC50 is 5.00 to 6.00.

Consider `COC(=O)c1cc(C(=O)NC2c3ccccc3-c3c(-c4nc5ccncc5[nH]4)cccc32)ccn1` (racemic) [Example 108, methyl ester of 4-[4-(3H-imidazo[4,5-c]pyridin-2-yl)-9H-fluoren-9(R,S)-ylcarbamoyl]-pyridine-2-carboxylic acid], for which the pIC50 was > 6.00.

In the case of `CCOC(=O)NC1c2ccccc2-c2c(-c3nc4cnccc4[nH]3)cccc21` (racemic) [Example 20, ethyl ester of [4-(3H-imidazo[4,5-c]pyridin-2-yl)-9H-fluoren-9(R,S)-yl]-carbamoic acid], the pIC50 is 5.00 to 6.00.

In the case of `O=C(NC1c2ccccc2-c2c(-c3nc4ccncc4[nH]3)cccc21)c1cc(-c2ccco2)nc2ccccc12` (racemic) [Example 113, [4-(3H-imidazo[4,5-c]pyridin-2-yl)-9H-fluoren-9(R,S)-yl]amide of 2-(furan-2-yl)-quinoline-4-carboxylic acid], the pIC50 was 5.00 to 6.00.

Regarding `N#Cc1cc(C(=O)NC2c3ccccc3-c3c(-c4nc5ccncc5[nH]4)cccc32)ccn1` (racemic) [Example 105, 2-cyano-N-[4-(3H-imidazo[4,5-c]pyridin-2-yl)-9H-fluoren-9(R,S)-yl]-isonicotinamide], the pIC50 is 5.00 to 6.00.

`FC1c2ccccc2-c2c(-c3nc4cnccc4[nH]3)cccc21` (racemic) [Example 10, 2-[9(R,S)-fluoro-9H-fluoren-4-yl]-1H-imidazo[4,5-c]pyridine]: the pIC50 was 5.00 to 6.00.

On to `CCc1cc(C(=O)NC2c3ccccc3-c3c(-c4nc5ccncc5[nH]4)cccc32)ccn1` (racemic) [Example 82, 2-ethyl-N-[4-(3H-imidazo[4,5-c]pyridin-2-yl)-9H-fluoren-9(R,S)-yl]-isonicotinamide], for which the pIC50 was > 6.00.

In the case of `c1ccc2c(c1)Cc1cccc(-c3nc4cnccc4[nH]3)c1-2` [Example 7, 2-(9H-fluoren-4-yl)-3H-imidazo[4,5-c]pyridine], the negative logarithm of the IC50 (pIC50) was 4.00 to 5.00.

On to `O=C(NC1c2ccccc2-c2c(-c3nc4ccc(O)cc4[nH]3)cccc21)c1ccncc1` (racemic) [Example 117, N-[4-(6-hydroxy-1H-benzimidazol-2-yl)-9H-fluoren-9(R,S)-yl]-isonicotinamide], for which the pIC50 was 5.00 to 6.00.

Regarding `O=C(NC1c2ccccc2-c2c(-c3nc4ccncc4[nH]3)cccc21)c1ccnc2[nH]ccc12` (racemic) [Example 92, [4-(3H-imidazo[4,5-c]pyridin-2-yl)-9H-fluoren-9(R,S)-yl]amide of 1H-pyrrolo[2,3-b]pyridine-4-carboxylic acid], the pIC50 is > 6.00.

As to `O=C(NC1c2ccccc2-c2c(-c3nc4ccncc4[nH]3)cccc21)c1ccnc(CO)c1` (racemic) [Example 94, 2-hydroxymethyl-N-[4-(3H-imidazo[4,5-c]pyridin-2-yl)-9H-fluoren-9(R,S)-yl]-isonicotinamide], the pIC50 was 5.00 to 6.00.

With `Nc1ccc2c(C(=O)NC3c4ccccc4-c4c(-c5nc6cnccc6[nH]5)cccc43)cccc2c1` (racemic) [Example 54, [4-(3H-imidazo[4,5-c]pyridin-2-yl)-9H-fluoren-9(R,S)-yl]amide of 6-amino-naphthalene-1-carboxylic acid], the pIC50 was 5.00 to 6.00.

As for `O=C(Cc1ccncc1)NC1c2ccccc2-c2c(-c3nc4ccncc4[nH]3)cccc21` (racemic) [Example 37, N-[4-(3H-imidazo[4,5-c]pyridin-2-yl)-9H-fluoren-9(R,S))-yl]-2-pyridin-4-yl-acetamide trifluoroacetate], the pIC50 was 5.00 to 6.00.

Turning to `C[C@@H](C(=O)N[C@@H]1c2ccccc2-c2c(-c3nc4ccncc4[nH]3)cccc21)c1cccnc1` (racemic) [Example 100, N-[4-(3H-imidazo[4,5-c]pyridin-2-yl)-9H-fluoren-9(R,S)-yl]-2(R,S)-(pyridin-3-yl)-propionamide], the pIC50 was 4.00 to 5.00.

In the case of `O=C(NC1c2ccccc2-c2c(-c3nc4ccncc4[nH]3)cccc21)c1ccnc(N2CCCC2)c1` (racemic) [Example 120, N-[4-(3H-imidazo[4,5-c]pyridin-2-yl)-9H-fluoren-9(R,S)-yl]-2-pyrrolidin-1-yl-isonicotinamide], the pIC50 was 5.00 to 6.00.

Turning to `O=C(NC1c2ccccc2-c2c(-c3nc4cnccc4[nH]3)cccc21)c1nccc2ccccc12` (racemic) [Example 64, [4-(3H-imidazo[4,5-c]pyridin-2-yl)-9H-fluoren-9(R,S)-yl]amide of isoquinoline-1-carboxylic acid], the pIC50 was 4.00 to 5.00.

Take `S=C(NC1c2ccccc2-c2c(-c3nc4cnccc4[nH]3)cccc21)c1cccc2ncccc12` (racemic) [Example 55, [4-(3H-imidazo[4,5-c]pyridin-2-yl)-9H-fluoren-9(R,S)-yl]amide trifluoroacetate of quinoline-5-carbothioic acid]: the pIC50 is > 6.00.

In the case of `O=C(Cc1cccnc1)NC1c2ccccc2-c2c(-c3nc4cnccc4[nH]3)cccc21` (racemic) [Example 21, N-[4-(3H-imidazo[4,5-c]pyridin-2-yl)-9H-fluoren-9(R,S)-yl]-2-(pyridin-3-yl)-acetamide], the pIC50 is 5.00 to 6.00.

On to `CC(=O)CCC(=O)NC1c2ccccc2-c2c(-c3nc4ccncc4[nH]3)cccc21` (racemic) [Example 49, hydrochloride of [4-(3H-imidazo[4,5-c]pyridin-2-yl)-9H-fluoren-9(R,S)-yl]amide of 4-oxo-pentanoic acid], for which the pIC50 was 4.00 to 5.00.

With `O/N=C1\c2ccccc2-c2c1cccc2-c1nc2cnccc2[nH]1` [Example 19, 4-(3H-imidazo[4,5-c]pyridin-2-yl)-fluoren-9-one oxime (Z)], the pIC50 was 5.00 to 6.00.

With `CC(C)(C)OC(=O)Nc1cc(C(=O)NC2c3ccccc3-c3c(-c4nc5ccncc5[nH]4)cccc32)ccn1` (racemic) [Example 125, N-[4-(3H-imidazo[4,5-c]pyridin-2-yl)-9H-fluoren-9(R,S)-yl]amide of 2-tert-butoxycarbonylaminoisonicotinic acid], the pIC50 is > 6.00.

`NC(=O)CCNC(=O)NC1c2ccccc2-c2c(-c3nc4ccncc4[nH]3)cccc21` (racemic) [Example 79, trifluoroacetate of 3-{3-[4-(3H-imidazo[4,5-c]pyridin-2-yl)-9H-fluoren-9(R,S)-yl]-ureido}-propionamide]: the pIC50 was 4.00 to 5.00.

On to `O=C(NC1c2ccccc2-c2c(-c3nc4ccncc4[nH]3)cccc21)c1ccnc(Br)c1` (racemic) [Example 102, 2-bromo-N-[4-(3H-imidazo[4,5-c]pyridin-2-yl)-9H-fluoren-9(R,S)-yl]-isonicotinamide], for which the pIC50 is > 6.00.

Take `CC(C)(C)OC(=O)N1CCC(C(=O)NC2c3ccccc3-c3c(-c4nc5ccncc5[nH]4)cccc32)CC1` (racemic) [Example 33, tert-butyl ester of 4-[4-(3H-imidazo[4,5-c]pyridin-2-yl)-9H-fluoren-9(R,S)-ylcarbamoyl]-piperidine-1-carboxylic acid]: the negative-log IC50 (pIC50) was 5.00 to 6.00.

On to `O=C(NC1c2ccccc2-c2c(-c3nc4cccnc4[nH]3)cccc21)c1ccncc1` (racemic) [Example 110, N-[4-(3H-imidazo[4,5-b]pyridin-2-yl)-9H-fluoren-9(R,S)-yl]-isonicotinamide], for which the pIC50 is 4.00 to 5.00.

As to `Nc1nccc(C(=O)NC2c3ccccc3-c3c(-c4nc5ccncc5[nH]4)cccc32)n1` (stereo not shown) [Example 91, [4-(3H-imidazo[4,5-c]pyridin-2-yl)-9H-fluoren-9-yl]amide of 2-amino-pyrimidine-4-carboxylic acid], the pIC50 is > 6.00.

As to `NC(=O)CCC(=O)NC1c2ccccc2-c2c(-c3nc4cnccc4[nH]3)cccc21` (racemic) [Example 40, N-[4-(3H-imidazo[4,5-c]pyridin-2-yl)-9H-fluoren-9(R,S)-yl]-succinamide trifluoroacetate], the pIC50 is 5.00 to 6.00.

With `CC(C)(C)OC(=O)N[C@H](CC(N)=O)C(=O)NC1c2ccccc2-c2c(-c3nc4cnccc4[nH]3)cccc21` (stereo partly drawn) [Example 61, tert-butyl ester of {(R)-2-carbamoyl-1-[4-(3H-imidazo[4,5-c]pyridin-2-yl)-9H-fluoren-9(R,S)-ylcarbamoyl]-ethyl}-carbamoic acid], the pIC50 was 5.00 to 6.00.

For `O=C(NC1c2ccccc2-c2c(-c3nc4ccncc4[nH]3)cccc21)c1cccc(O)c1` (racemic) [Example 50, hydrochloride of 3-hydroxy-N-[4-(3H-imidazo[4,5-c]pyridin-2-yl)-9H-fluoren-9(R,S)-yl]-benzamide], the pIC50 was 5.00 to 6.00.

On to `O=C(NC1c2ccccc2-c2c(-c3nc4cnccc4[nH]3)cccc21)c1cccc2[nH]ccc12` (racemic) [Example 53, [4-(3H-imidazo[4,5-c]pyridin-2-yl)-9H-fluoren-9(R,S)-yl]amide of 1H-indole-4-carboxylic acid], for which the pIC50 is 5.00 to 6.00.

With `O=C(NC1c2ccccc2-c2c(-c3nc4cnccc4[nH]3)cccc21)c1ccnc2ccccc12` (racemic) [Example 67, [4-(3H-imidazo[4,5-c]pyridin-2-yl)-9H-fluoren-9(R,S)-yl]amide of quinoline-4-carboxylic acid], the pIC50 is > 6.00.

Usually pIC50 stands for the IC50 on a negative log10 scale, so that one unit is a factor of ten.
